From patent publication US6989162B2, “Hepatoprotective agent of plant origin and a process thereof” (Council of Scientific & Industrial Research, priority 2003, dated 2006)
Values joined by “and” are separate entries in the source; they are usually repeats but may differ in a detail not shown here. Equal values may be shown once.

Key:
[1] = Effect on BP and respiration, I.V. in rat; type: in vivo; settings: 30 μg, 100 μg, 300 μg and 1 mg I.V. in rat
[2] = Acteoside only (per-se), serum and hepatic parameters without toxin; type: in vivo, Rodents; settings: 5 mg/kg, mean ± SE, six animals
isolated rat colon = test: Histamine, 5-HT and Acetylcholine induced contraction on the isolated rat colon
[3] = tested on: CCl4 induced hepatic injury; test: Hepatoprotective potential against CCl4 induced hepatic injury in rodents (prophylactic); type: in vivo, Rodents (Albino rats, Wistar; Albino mice, Swiss); settings: for % protection, GSH / % protection, LP / GSH (glutathione) / LP (lipid peroxidation): hepatic; for GSH (glutathione) / LP (lipid peroxidation) / ALP / Albumin / Bilirubin / GOT / GPT / TG: mean ± SE, six animals; for % protection, ALP / % protection, Albumin / % protection, Bilirubin / % protection, GOT / % protection, GPT / % protection, TG / ALP / Albumin / Bilirubin / GOT / GPT / TG: serum
Source text: The compound has been bioevaluated for hepatoprotective/antihepatotoxic activity by using a comprehensive study design annexed herewith as Annexure-2. The parameters studied during the bioevaluation to establish the bioefficacy and optimum dose were preferred using the kits (Clonital, Italy and Accurex Biomedical Pvt. Ltd Thane). The list of the parameters is given in Annexure-2 appended herewith. The dose response graphs with respect to different parameters in comparison with the standard drug with silymarin and glycyrrhizin are given in Annexure-3 appended herewith.
Hepatoprotective activity (H) was calculated by the following equation: H=[1−(TC−V/VC−V)]×100
Where TC, VC, and V are drug+toxin, vehicle+toxin and vehicle treated groups of animals respectively.

C[C@@H]1O[C@@H](O[C@@H]2[C@@H](O)[C@H](OCCc3ccc(O)c(O)c3)O[C@H](CO)[C@H]2OC(=O)/C=C/c2ccc(O)c(O)c2)[C@H](O)[C@H](O)[C@H]1O [Acteoside, β-(3′,4′-dihydroxyphenyl) ethyl —O-α-L-rhamnopyranosyl (1→3)-β-D-(4-O-caffeoyl)-glucopyranoside]
effect on BP [1]: O: There is no effect on BP and Respiration in the doses of 30 μg, 100 μg, 300 μg and 1 mg I.V. in rat as there is no change in base line.
effect on Respiration [1]: O: There is no effect on BP and Respiration in the doses of 30 μg, 100 μg, 300 μg and 1 mg I.V. in rat as there is no change in base line.
GSH (glutathione) ([2]; no CCl4, hepatic): 8.33 ± 0.33 μ mole GSH/g liver
LP (lipid peroxidation) ([2]; no CCl4, hepatic): 30.52 ± 1.38 n mole MDA/g liver
ALP ([2]; no CCl4, serum): 31.87 ± 2.15 μ mole of p-nitrophenol formed/min/L
Albumin ([2]; no CCl4, serum): 4.66 ± 0.18 g %
Bilirubin ([2]; no CCl4, serum): 0.27 ± 0.02 mg %
GOT ([2]; no CCl4, serum): 94.71 ± 5.29 Units (μ mole pyruvate/min/L)
GPT ([2]; no CCl4, serum): 98.91 ± 5.30 Units (μ mole pyruvate/min/L)
TG ([2]; no CCl4, serum): 31.10 ± 2.39 mg %
effect on 5-HT induced contraction (isolated rat colon): O: There is no change in the base line against the Histamine, 5-HT and Acetylcholine induced contraction on the isolated rat colon.
effect on Acetylcholine induced contraction (isolated rat colon): O: There is no change in the base line against the Histamine, 5-HT and Acetylcholine induced contraction on the isolated rat colon.
effect on Histamine induced contraction (isolated rat colon): O: There is no change in the base line against the Histamine, 5-HT and Acetylcholine induced contraction on the isolated rat colon.
% protection, GSH ([3]; 0.625 mg/kg p.o. + CCl4): (27.86) %
% protection, LP ([3]; 0.625 mg/kg p.o. + CCl4): (43.53) %
GSH (glutathione) ([3]; 0.625 mg/kg p.o. + CCl4): 4.66 ± 0.28 μ mole GSH/g liver
LP (lipid peroxidation) ([3]; 0.625 mg/kg p.o. + CCl4): 61.08 ± 3.39 n mole MDA/g liver
% protection, ALP ([3]; 0.625 mg/kg p.o. + CCl4): (21.48) %
% protection, Albumin ([3]; 0.625 mg/kg p.o. + CCl4): (21.43) %
% protection, Bilirubin ([3]; 0.625 mg/kg p.o. + CCl4): (12.24) %
% protection, GOT ([3]; 0.625 mg/kg p.o. + CCl4): (36.64) %
% protection, GPT ([3]; 0.625 mg/kg p.o. + CCl4): (39.44) %
% protection, TG ([3]; 0.625 mg/kg p.o. + CCl4): (17.63) %
ALP ([3]; 0.625 mg/kg p.o. + CCl4): 66.80 ± 3.53 μ mole of p-nitrophenol formed/min/L
Albumin ([3]; 0.625 mg/kg p.o. + CCl4): 3.06 ± 0.07 g %
Bilirubin ([3]; 0.625 mg/kg p.o. + CCl4): 0.70 ± 0.03 mg %
GOT ([3]; 0.625 mg/kg p.o. + CCl4): 673.82 ± 56.28 Units (μ mole pyruvate/min/L)
GPT ([3]; 0.625 mg/kg p.o. + CCl4): 852.27 ± 47.93 Units (μ mole pyruvate/min/L)
TG ([3]; 0.625 mg/kg p.o. + CCl4): 80.15 ± 3.53 mg %
overall percent protection with reference to all the parameters studied ([3]; 1.25 mg upto 5 mg/kg, CCl4): 40-85% and 40-80%
% protection, GSH ([3]; 1.25 mg/kg p.o. + CCl4): (52.96) %
% protection, LP ([3]; 1.25 mg/kg p.o. + CCl4): (59.38) %
GSH (glutathione) ([3]; 1.25 mg/kg p.o. + CCl4): 5.93 ± 0.32 μ mole GSH/g liver
LP (lipid peroxidation) ([3]; 1.25 mg/kg p.o. + CCl4): 52.61 ± 2.25 n mole MDA/g liver
% protection, ALP ([3]; 1.25 mg/kg p.o. + CCl4): (38.72) %
% protection, Albumin ([3]; 1.25 mg/kg p.o. + CCl4): (35.00) %
% protection, Bilirubin ([3]; 1.25 mg/kg p.o. + CCl4): (34.69) %
% protection, GOT ([3]; 1.25 mg/kg p.o. + CCl4): (55.43) %
% protection, GPT ([3]; 1.25 mg/kg p.o. + CCl4): (51.01) %
% protection, TG ([3]; 1.25 mg/kg p.o. + CCl4): (27.13) %
ALP ([3]; 1.25 mg/kg p.o. + CCl4): 59.10 ± 3.09 μ mole of p-nitrophenol formed/min/L
Albumin ([3]; 1.25 mg/kg p.o. + CCl4): 3.25 ± 0.14 g %
Bilirubin ([3]; 1.25 mg/kg p.o. + CCl4): 0.59 ± 0.03 mg %
GOT ([3]; 1.25 mg/kg p.o. + CCl4): 503.42 ± 48.95 Units (μ mole pyruvate/min/L)
GPT ([3]; 1.25 mg/kg p.o. + CCl4): 787.56 ± 57.49 Units (μ mole pyruvate/min/L)
TG ([3]; 1.25 mg/kg p.o. + CCl4): 74.38 ± 3.78 mg %
% protection, GSH ([3]; 2.5 mg/kg p.o. + CCl4): (68.57) %
% protection, LP ([3]; 2.5 mg/kg p.o. + CCl4): (72.76) %
GSH (glutathione) ([3]; 2.5 mg/kg p.o. + CCl4): 6.72 ± 0.28 μ mole GSH/g liver
LP (lipid peroxidation) ([3]; 2.5 mg/kg p.o. + CCl4): 45.46 ± 2.79 n mole MDA/g liver
% protection, ALP ([3]; 2.5 mg/kg p.o. + CCl4): (56.40) %
% protection, Albumin ([3]; 2.5 mg/kg p.o. + CCl4): (56.43) %
% protection, Bilirubin ([3]; 2.5 mg/kg p.o. + CCl4): (53.06) %
% protection, GOT ([3]; 2.5 mg/kg p.o. + CCl4): (58.92) %
% protection, GPT ([3]; 2.5 mg/kg p.o. + CCl4): (59.79) %
% protection, TG ([3]; 2.5 mg/kg p.o. + CCl4): (51.06) %
ALP ([3]; 2.5 mg/kg p.o. + CCl4): 51.20 ± 1.42 μ mole of p-nitrophenol formed/min/L
Albumin ([3]; 2.5 mg/kg p.o. + CCl4): 3.55 ± 0.22 g %
Bilirubin ([3]; 2.5 mg/kg p.o. + CCl4): 0.50 ± 0.03 mg %
GOT ([3]; 2.5 mg/kg p.o. + CCl4): 471.81 ± 26.40 Units (μ mole pyruvate/min/L)
GPT ([3]; 2.5 mg/kg p.o. + CCl4): 662.62 ± 39.80 Units (μ mole pyruvate/min/L)
TG ([3]; 2.5 mg/kg p.o. + CCl4): 59.85 ± 1.88 mg %
% protection, GSH ([3]; 5.0 mg/kg p.o. + CCl4): (74.50) %
% protection, LP ([3]; 5.0 mg/kg p.o. + CCl4): (75.07) %
GSH (glutathione) ([3]; 5.0 mg/kg p.o. + CCl4): 7.02 ± 0.46 μ mole GSH/g liver
LP (lipid peroxidation) ([3]; 5.0 mg/kg p.o. + CCl4): 44.22 ± 1.66 n mole MDA/g liver
% protection, ALP ([3]; 5.0 mg/kg p.o. + CCl4): (67.21) %
% protection, Albumin ([3]; 5.0 mg/kg p.o. + CCl4): (82.14) %
% protection, Bilirubin ([3]; 5.0 mg/kg p.o. + CCl4): (69.38) %
% protection, GOT ([3]; 5.0 mg/kg p.o. + CCl4): (70.49) %
% protection, GPT ([3]; 5.0 mg/kg p.o. + CCl4): (66.08) %
% protection, TG ([3]; 5.0 mg/kg p.o. + CCl4): (68.42) %
ALP ([3]; 5.0 mg/kg p.o. + CCl4): 46.37 ± 1.89 μ mole of p-nitrophenol formed/min/L
Albumin ([3]; 5.0 mg/kg p.o. + CCl4): 3.91 ± 0.12 g %
Bilirubin ([3]; 5.0 mg/kg p.o. + CCl4): 0.42 ± 0.02 mg %
GOT ([3]; 5.0 mg/kg p.o. + CCl4): 366.89 ± 26.97 Units (μ mole pyruvate/min/L)
GPT ([3]; 5.0 mg/kg p.o. + CCl4): 573.10 ± 28.25 Units (μ mole pyruvate/min/L)
TG ([3]; 5.0 mg/kg p.o. + CCl4): 49.31 ± 1.47 mg %
overall protection compared with silymarin ([3]; silymarin at 10-20 times the dosage of acteoside): better than that rendered by silymarin

CC1(C)[C@@H](O[C@H]2O[C@H](C(=O)O)[C@@H](O)[C@H](O)[C@H]2O[C@@H]2O[C@H](C(=O)O)[C@@H](O)[C@H](O)[C@H]2O)CC[C@]2(C)[C@H]3C(=O)C=C4[C@@H]5C[C@@](C)(C(=O)O)CC[C@]5(C)CC[C@@]4(C)[C@]3(C)CC[C@@H]12 [Glycyrrhizin, reference compound]
% protection, GSH ([3]; 100 mg/kg p.o. + CCl4): (53.55) %
% protection, LP ([3]; 100 mg/kg p.o. + CCl4): (56.08) %
GSH (glutathione) ([3]; 100 mg/kg p.o. + CCl4): 5.96 ± 0.26 μ mole GSH/g liver
LP (lipid peroxidation) ([3]; 100 mg/kg p.o. + CCl4): 54.37 ± 4.82 n mole MDA/g liver
% protection, ALP ([3]; 100 mg/kg p.o. + CCl4): (46.48) %
% protection, Albumin ([3]; 100 mg/kg p.o. + CCl4): (38.57) %
% protection, Bilirubin ([3]; 100 mg/kg p.o. + CCl4): (42.85) %
% protection, GOT ([3]; 100 mg/kg p.o. + CCl4): (56.44) %
% protection, GPT ([3]; 100 mg/kg p.o. + CCl4): (53.87) %
% protection, TG ([3]; 100 mg/kg p.o. + CCl4): (42.07) %
ALP ([3]; 100 mg/kg p.o. + CCl4): 55.63 ± 3.52 μ mole of p-nitrophenol formed/min/L
Albumin ([3]; 100 mg/kg p.o. + CCl4): 3.30 ± 0.12 g %
Bilirubin ([3]; 100 mg/kg p.o. + CCl4): 0.55 ± 0.04 mg %
GOT ([3]; 100 mg/kg p.o. + CCl4): 494.27 ± 36.28 Units (μ mole pyruvate/min/L)
GPT ([3]; 100 mg/kg p.o. + CCl4): 746.87 ± 49.77 Units (μ mole pyruvate/min/L)
TG ([3]; 100 mg/kg p.o. + CCl4): 65.31 ± 3.69 mg %
